Consider 3 compounds from US10828304B2, “Compositions and methods for white to beige adipogenesis” (University of South Florida, priority 2017, dated 2020).

For experiment [1], the system named is Clk1. As to conditions: stated as 'may be about'; no test described; cited from earlier work.
The subject of experiment [2] is 3T3-L1 cells. The experiment can be described thus: MitoTracker Green staining of mitochondria in 3T3-L1 cells. Format: cell-based. Conditions: dose of 100 nM. How it is done: (§1) The effect of the Clk1 inhibitor DC677 or DC761 on 3T3-L1 cells was examined. 3T3-L1 cells were incubated with 50 nM TG003 (an inhibitor of Clk1), 100 nM DC677, or 100 nM DC761 for 3 to 5 days. Adipocytes were used as a control. UCP1 expression was determined (results are shown in FIG. 1A and FIG. 2A; RQ is reference quotient). Oil Red O (obtained from Sigma-Aldrich, St. Louis, Mo.) was used to stain triglycerides and lipids, and the levels of Oil Red O were determined by measuring absorbance at 520 nm (results are shown in FIG. 1C and FIG. 2C). MitoTracker™ Green (Thermo Fischer Scientific, Waltham, Mass.) was used to stain mitochondria, and levels were determined by measuring absorbance at 495 nm (results are shown in FIG. 1D and FIG. 2D).
The effect of the Clk1 inhibitor DC677 on 3T3-L1 cells was examined with fluorescence microscopy. 3T3-L1 cells were cultured in a 12-well plate and differentiated by […] (MDI). The cells were then incubated with insulin, TG003, or DC677. On day 8, the cells were stained with MitoTracker™ Green (Thermo Fischer Scientific, Waltham, Mass.). In FIG. 3, the cell treatment is as follows: (1) insulin as a control; (2) 50 nm TG003 added on day 2; (3) 50 nm TG003 added on day 4; (4) 100 nm DC677 added on day 2; (5) 100 nm DC677 added on day 4; and (6) 100 nm DC677 added on day 6.

Experiment [3] has as its system UCP1. The experiment can be described thus: UCP1 expression in 3T3-L1 cells. Format: cell-based. Conditions: 100 nM, 3 to 5 days during terminal differentiation, vs adipocyte control. How it is done: as §1
The test system of experiment [4] is 3T3-L1 cells. The experiment can be described thus: Differentiation of 3T3-L1 cells into beige cells. It is filed as cell-based. Conditions: for differentiation of 3T3-L1 cells into beige cells: 100 nM, 3 to 5 days. How it is done:
as §1

Experiment [5] concerns PGC1α. The experiment can be described thus: PGC1α expression in 3T3-L1 cells. Format: cell-based. Conditions: 100 nM, 3 to 5 days during terminal differentiation, vs adipocyte control.
For experiment [6], the system named is 3T3-L1 cells. The experiment can be described thus: Oil Red O staining of triglycerides and lipids in 3T3-L1 cells. Format: cell-based. As to conditions: 100 nM, 3 to 5 days during terminal differentiation. The procedure:
as §1

The structures appear in SMILES notation.

`CCN1/C(=C/C(C)=O)Sc2ccc(OC)cc21` [TG003]: the IC50 in experiment [1] is […].

In the case of `O=C1Nc2ccc(Br)cc2/C1=C\c1nc2ccccc2c(=O)n1Cc1ccccc1` [DC677, 3-benzyl-2-[(5-bromo-2-oxo-1,2-dihydro-3H-indol-3-ylidene)methyl]-4(3H)-quinazolinone], the “mitochondrial biogenesis, effectiveness compared to TG003 at 50 nM” value in experiment [2] was “highly effective”. Besides, the UCP1 expression entry in experiment [3] is listed as “increased”. Besides, the “performance compared with TG003” value in experiment [4] (100 nM DC677 vs 50 nM TG003) is recorded as “performs equally well to TG003”. The “differentiation of 3T3-L1 cells into beige cells” value in experiment [4] was “can differentiate into “beige” cells”. In experiment [5], the PGC1α expression result is given as “increased”. The “lipid storage and lipid droplet size” value in experiment [6] is “stored fewer lipids in smaller lipid droplets”.

As for `CC(=O)Nc1cccc(N2C(=O)c3cccc4cc([N+](=O)[O-])cc(c34)C2=O)c1` [DC761, N-[3-(5-nitro-1,3-dioxo-1H-benzo[de]isoquinolin-2(3H)-yl)phenyl]acetamide], the UCP1 expression result in experiment [3] is “increased”. In addition, the “differentiation of 3T3-L1 cells into beige cells” value in experiment [4] is “can differentiate into “beige” cells”. The PGC1α expression result in experiment [5] is reported as “increased”. For the same compound, in experiment [6], the “lipid storage and lipid droplet size” value is “stored fewer lipids in smaller lipid droplets”.
